# Reference: patent US20260256751A1, “COMBINATION OF BETA-2-ADRENERGIC RECEPTOR AGONISTS AND GLP-1 RECEPTOR AGONISTS FOR USE IN TREATING HYPERGLYCAEMIA” (ATROGI AB, priority 2023, published 2026)
# Legend:
# [1] = system: differentiated L6-myotubes; test: Glucose uptake screen (Biological example 1 of WO 2019/053427); assay type: cell-based; settings: compound at 10 μM, activity relative to isoproterenol at 10 μM; for Emax at 10 µM: read-out: Biological example 1 of WO 2019/053427 (GU)
# Summary of the method: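 Uptake was read out as ^3H-2-deoxyglucose (50 nM, 10 min) radioactivity in NaOH lysates. Beforehand, overnight-starved, differentiated L6 myotubes received compound at 1×10^−5 M with ICI-118551 present for 1 h 40 min, followed by fresh agonist for a further 20 min in glucose-free medium.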
# [2] = system: differentiated L6-myotubes; test: cAMP production relative to isoprenaline (Biological example 2 of WO 2019/053427); assay type: cell-based; settings: 0.25 h, compound at 10 μM, activity relative to isoproterenol at 10 μM
# Summary of the method: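 Values are cAMP levels relative to isoprenaline at equal concentration (final 1×10^−5 M for both). Stimulation lasted 15 min in differentiated L6 myotubes, using HBSS buffer (pH 7.4) containing 1 mM IBMX, 5 mM HEPES and 1% BSA.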
SMILES,Emax at 10 µM [1],Emax at 10 µM [2],Biological example 1 of WO 2019/053427 (GU) [1]
"CS(=O)(=O)N[C@H]1CC[C@@H](C[C@@H]2CC[C@H]([C@@H](O)c3cccc(F)c3)N2)CC1 [Compound 511, (S)-[(2R,5S)-5-{[(1s,4R)-4-(mesylamino)cyclohexyl]methyl}-2-pyrrolidinyl](m-fluorophenyl)methanol]",25 to 50%,< 25%,–
"CO[C@H]1CC[C@@H](CCC(C)(C)NC[C@H](O)c2cccc(F)c2)CC1 [Compound 264, (R)-2-{1,1-dimethyl-3-[(1s,R)-4-methoxycyclohexyl]propyl-amino}-1-(m-fluorophenyl)-1-ethanol]",> 75%,25 to 50%,–
"CC1(C)CC[C@H]([C@H](O)c2cncc(F)c2)N1 [Compound 157, (R)-[(R)-5,5-dimethyl-2-pyrrolidinyl](5-fluoro-3-pyridyl)methanol]",> 75%,< 25%,–
"O[C@@H](CNCC[C@H]1CC[C@H](O)CC1)c1cccc(F)c1 [Compound 298, (R)-1-(m-fluorophenyl)-2-{2-[(1r,4R)-4-hydroxycyclohexyl]ethylamino}-1-ethanol]",25 to 50%,< 25%,–
"CS(=O)(=O)N(Cc1ccccc1)CC12CCC([C@@H](O)c3cccc(F)c3)(CC1)N2 [Compound 538, (S)-(4-{[(benzyl)-N-mesylamino]methyl}-7-azabicyclo[2.2.1]hept-1-yl)(m-fluorophenyl)methanol]",50 to 75%,< 25%,–
"CCC[C@@H]1CC[C@H]([C@@H](O)c2cccc(F)c2)N1 [Compound 126, (S)-[(2R,5R)-5-propyl-2-pyrrolidinyl](m-fluorophenyl)methanol]",25 to 50%,< 25%,–
"CCC[C@@H]1CCC[C@H]([C@@H](O)c2cccc(F)c2)N1 [Compound 60, (S)-[(2R,6R)-6-propyl-2-piperidyl](m-fluorophenyl)methanol]",25 to 50%,< 25%,–
"CNS(=O)(=O)[C@H]1CC[C@H](CC(C)(C)NC[C@H](O)c2cncc(F)c2)CC1 [Compound 478, (R)-2-{1,1-dimethyl-2-[(1r,4R)-4-(methylaminosulfonyl)cyclohexyl]ethylamino}-1-(5-fluoro-3-pyridyl)-1-ethanol]",25 to 50%,< 25%,–
"CC1(C)CC[C@H]([C@H](O)c2cncc(O)c2)N1 [Compound 167, 5-{(R)-[(R)-5,5-dimethyl-2-pyrrolidinyl]hydroxymeth-yl}-3-pyridinol]",50 to 75%,< 25%,–
"CC(C)(C[C@H]1CC[C@@H](NS(C)(=O)=O)CC1)NC[C@H](O)c1cccc(C(F)(F)F)n1 [Compound 463, (S)-2-{1,1-dimethyl-2-[(1s,4R)-4-(mesylamino)cyclohexyl]ethylamino}-1-[6-(trifluoromethyl)-2-pyridyl]-1-ethanol]",50 to 75%,< 25%,–
"CCCS(=O)(=O)N[C@H]1CC[C@@H](CC(C)(C)NC[C@H](O)c2cccc(F)c2)CC1 [Compound 497, (R)-2-{1,1-dimethyl-2-[(1s,4S)-4-(propylsulfonylamino)cyclohexyl]ethylamino}-1-(m-fluorophenyl)-1-ethanol]",50 to 75%,< 25%,–
"CCC[C@H]1CCC[C@@H]([C@H](O)c2cccc(O)c2)N1 [Compound 122, (R)-[(2S,6S)-6-propyl-2-piperidyl](m-hydroxyphenyl)methanol]",50 to 75%,< 25%,–
"CC(C)(NC[C@H](O)c1cncc(F)c1)[C@H]1CC[C@H](O)CC1 [Compound 285, (R)-1-(5-fluoro-3-pyridyl)-2-{1-methyl-1-[(1r,4R)-4-hydroxycyclohexyl]ethyl-amino}-1-ethanol]",50 to 75%,< 25%,–
"CCC[C@H]1CCC[C@H]([C@H](O)c2cccc(O)c2)N1 [Compound 64, (R)-[(2R,6S)-6-propyl-2-piperidyl](m-hydroxyphenyl)methanol]",> 75%,< 25%,–
"CC(C)(C)NC[C@H](O)c1ccc(O)cn1 [Compound 95, 6-[(S)-2-(tert-butylamino)-1-hydroxyethyl]-3-pyridinol]",50 to 75%,< 25%,–
"CC12CC(C1)[C@@H]([C@@H](O)c1cncc(F)c1)N2 [Compound 221, (S)-{(S)-1-methyl-2-azabicyclo[2.1.1]hex-3-yl}(5-fluoro-3-pyridyl)methanol]",50 to 75%,< 25%,–
"CCCC(C)NCC(O)c1cc(Cl)c(N)c(Cl)c1 (centres unmarked) [Compound 22, 1-(4-amino-3,5-dichlorophenyl)-2-(1-methylbutylamino)-1-ethanol]",> 75%,50 to 75%,–

SMILES,Emax at 10 µM [1],Emax at 10 µM [2],Biological example 1 of WO 2019/053427 (GU) [1]
"CCC[C@@H]1CC[C@H]([C@H](O)c2cncc(F)c2)N1 [Compound 160, (R)-[(2R,5R)-5-propyl-2-pyrrolidinyl](5-fluoro-3-pyridyl)methanol]",–,< 25%,+++ (more than 75% of that of isoproterenol at 10 μM)
"Oc1ccc(C(O)CNCCCC2CCCCC2)cc1 (centres unmarked) [Compound 21, 2-(3-cyclohexylpropylamino)-1-(p-hydroxyphenyl)-1-ethanol]",> 75%,< 25%,–
"CCCC1(CCC)CC[C@H]([C@@H](O)c2cccc(F)c2)N1 [Compound 158, (S)-[(R)-5,5-dipropyl-2-pyrrolidinyl](m-fluorophenyl)methanol]",< 25%,< 25%,–
"O[C@@H](CNCC[C@H]1CC[C@H](OCc2ccccc2)CC1)c1cncc(F)c1 [Compound 292, (R)-1-(5-fluoro-3-pyridyl)-2-{2-[(1r,4R)-4-(benzyloxy)cyclohexyl]ethylamino}-1-ethanol]",< 25%,< 25%,–
"O[C@@H](c1cccc(F)c1)C12CCC(COCc3ccc(Cl)cc3)(CC1)N2 [Compound 395, (S)-(4-{[(p-chlorophenyl)methoxy]methyl}-7-azabicyclo[2.2.1]hept-1-yl)(m-fluorophenyl)methanol]",50 to 75%,< 25%,–
"CO[C@H]1CC[C@H](CCNC[C@H](O)c2cccc(F)c2)CC1 [Compound 224, (R)-1-(m-fluorophenyl)-2-{2-[(1r,4R)-4-methoxycyclohexyl]ethyl-amino}-1-ethanol]",25 to 50%,< 25%,–
"CO[C@H]1CC[C@H](C[C@H]2CC[C@H]([C@@H](O)c3cncc(F)c3)N2)CC1 [Compound 340, (S)-[(2R,5R)-5-{[(1r,4R)-4-methoxycyclohexyl]methyl}-2-pyrrolidinyl](5-fluoro-3-pyridyl)methanol]",25 to 50%,< 25%,–
"CS(=O)(=O)N[C@H]1CC[C@H](C[C@@H]2CC[C@H]([C@@H](O)c3cccc(F)c3)N2)CC1 [Compound 505, (S)-[(2R,5S)-5-{[(1r,4S)-4-(mesylamino)cyclohexyl]methyl}-2-pyrrolidinyl](m-fluorophenyl)methanol]",< 25%,< 25%,–
"CC1(C)CC[C@@H]([C@H](O)c2cccc(O)c2)N1 [Compound 142, m-{(R)-[(S)-5,5-dimethyl-2-pyrrolidinyl]hydroxymeth-yl}phenol]",25 to 50%,< 25%,–
"CC(=O)N[C@H]1CC[C@H](CC(C)(C)NC[C@H](O)c2cncc(F)c2)CC1 [Compound 357, N-[(1R,4r)-4-{2-[(R)-2-(5-fluoro-3-pyridyl)-2-hydroxyethylamino]-2-methylpropyl}cyclohexyl]acetamide]",> 75%,< 25%,–
"CC12CC(C1)[C@H]([C@H](O)c1cncc(F)c1)N2 [Compound 220, (R)-{(R)-1-methyl-2-azabicyclo[2.1.1]hex-3-yl}(5-fluoro-3-pyridyl)methanol]",> 75%,< 25%,–
"CC12CCC([C@@H](O)c3ccccc3Cl)(CC1)N2 [Compound 194, (S)-(o-chlorophenyl)(4-methyl-7-azabicyclo[2.2.1]hept-1-yl)methanol]",> 75%,< 25%,–
"CC(C)(C[C@H]1CC[C@@H](S(N)(=O)=O)CC1)NC[C@H](O)c1cncc(F)c1 [Compound 519, (1S,4s)-4-{2-[(R)-2-(5-fluoro-3-pyridyl)-2-hydroxyethylamino]-2-methylpropyl}cyclohexanesulfonamide]",> 75%,< 25%,–
"CC1(C)CC[C@H]([C@H](O)c2cccc(O)c2)N1 [Compound 112, m-{(R)-[(R)-5,5-dimethyl-2-pyrrolidinyl]hydroxymeth-yl}phenol]",> 75%,< 25%,–
"CCC[C@@H]1CCC[C@H]([C@H](O)c2ccccc2F)N1 [Compound 97, (R)-[(2R,6R)-6-propyl-2-piperidyl](o-fluorophenyl)methanol]",50 to 75%,< 25%,–
"COC(=O)[C@H]1CC[C@H](CCC(C)(C)NC[C@H](O)c2cccc(F)c2)CC1 [Compound 350, methyl (1R,4r)-4-{3-[(R)-2-(m-fluorophenyl)-2-hydroxyethylamino]-3-methylbutyl}cyclohexanecarobxylate]",> 75%,< 25%,–
"CCOC(=O)CO[C@H]1CC[C@H](C(C)(C)NC[C@H](O)c2cncc(F)c2)CC1 [Compound 409, ethyl [(1R,4r)-4-{1-[(R)-2-(5-fluoro-3-pyridyl)-2-hydroxyethylamino]-1-methylethyl}cyclohexyloxy]acetate]",> 75%,< 25%,–
